Among the test systems are 786-0 renal; CCRF-CEM leukemia; HL-60(TB) leukemia; SF-295 CNS; SF-539 CNS; SN12C renal; SNB-19 CNS; UO-31 renal; A498 renal; PC-3 prostate; BT-549 breast.
Assay in all cases: inhibition of tumour cell growth, NCI panel, 48 h

SMILES strings stand for the structures. Values joined by “and” are separate entries in the source; they are usually repeats but may differ in a detail not shown here. Identical values can stand only once.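 Cells were grown in 96-well plates and exposed to each compound for 48 hours at five concentrations; endpoints were interpolated linearly between bracketing concentrations, or set to the highest concentration if not reached. GI50: concentration for 50% inhibition of growth. The concentration for full growth arrest is given as TGI.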 Where a SMILES comes first, the peptide text is derived from it. The star is where a group is joined. Boc = CC(C)(C)OC(=O)*

On to `Nc1nc(-c2ccco2)cc(-c2ccc(CO)o2)n1`, for which the TGI with 786-0 renal, with CCRF-CEM leukemia, in the test with HL-60(TB) leukemia, with SF-295 CNS, with SF-539 CNS and in the test on SN12C renal was greater than 100 µM throughout. The TGI in the test on SNB-19 CNS and in the test with UO-31 renal was greater than 100 µM each time.

In the case of `COC1=C(C)C(=O)c2c(cc3c(c2O)C(C)(CCC=C(C)C)C(C)O3)C1=O` (configuration not stated), the TGI in the test with 786-0 renal was greater than 100 µM; in the test on A498 renal it was 35 µM; in the test on CCRF-CEM leukemia, greater than 100 µM; in the test on HL-60(TB) leukemia, greater than 100 µM; in the test with SF-295 CNS, 52.7 µM; in the test on SF-539 CNS, greater than 100 µM. In addition, the results for the TGI in the test on SN12C renal, in the test on SNB-19 CNS and with UO-31 renal were greater than 61.8 µM, 34.5 µM and greater than 100 µM, respectively.

On to `COc1cc(C2c3cc4c(cc3[C@@H](NCCN3CCOCC3)C3COC(=O)[C@H]23)OCO4)cc(OC)c1O` (some centres not stated), for which the TGI in the test on 786-0 renal was 5.11 µM and 7.93 µM; with CCRF-CEM leukemia, greater than 75 µM; in the test with SF-295 CNS, 13.5 µM and 17.4 µM; in the test on SF-539 CNS it was 2.53 µM and 3.58 µM; with SN12C renal, 4.06 µM and 7.9 µM; in the test with SNB-19 CNS, greater than 75 µM. Besides, the TGI with UO-31 renal is 5.13 µM and 6.38 µM. The GI50 in the test with SN12C renal was 0.764 µM and 2.13 µM.

Take `Cc1cc(S(=O)(=O)/N=C(\[N-]S(=O)(=O)c2cc(Cl)sc2Cl)[n+]2ccc(N(C)C)cc2)c(S)cc1Cl`: the TGI with 786-0 renal is greater than 100 µM; with A498 renal, 82.5 µM; in the test on CCRF-CEM leukemia, greater than 100 µM; with HL-60(TB) leukemia, greater than 100 µM; in the test on PC-3 prostate it was greater than 100 µM; with SF-295 CNS, greater than 100 µM. In addition, the TGI was greater than 100 µM in the test on SF-539 CNS and 56 µM in the test with UO-31 renal.

Consider `O=C1c2ccccc2N2Oc3ccccc3C12c1ccccc1` (configuration not stated), for which the TGI in the test with 786-0 renal, with A498 renal, with CCRF-CEM leukemia, in the test on HL-60(TB) leukemia, in the test with SF-295 CNS and in the test on SF-539 CNS was greater than 100 µM in each case. Besides, the TGI in the test on SN12C renal, with SNB-19 CNS and with UO-31 renal was greater than 100 µM throughout.

Take `CCCCCCCCC/C=C1\CCC(CN(C)C)C1=O` (configuration not stated): the TGI stood at 0.963 µM in the test on 786-0 renal; 6.4 µM in the test on A498 renal; 4.82 µM with CCRF-CEM leukemia; 5.31 µM with HL-60(TB) leukemia; 12.7 µM with SF-295 CNS; 3.18 µM with SF-539 CNS. For the same compound, the TGI with SN12C renal was determined as 4.34 µM; in the test on SNB-19 CNS, 18.1 µM; with UO-31 renal it was 4.04 µM.

For the compound `CCCCCCCCCCCCCCCCCCOCC(O)COP(=O)(O)OCC1OC(n2ccc(N)nc2=O)C(O)C1O` (configuration not stated), the TGI turned out to be 26.5 µM in the test with 786-0 renal; 40.6 µM with A498 renal; 18.6 µM with CCRF-CEM leukemia; 30.8 µM with HL-60(TB) leukemia; 20.7 µM in the test on PC-3 prostate; 68.8 µM with SF-295 CNS. Moreover, the TGI was 34.4 µM with SF-539 CNS, greater than 100 µM in the test with SN12C renal and 24.6 µM with SNB-19 CNS.

Consider `CNC1(C(=O)O)CC1`, for which the TGI in the test on 786-0 renal, with A498 renal, in the test with CCRF-CEM leukemia, with HL-60(TB) leukemia, in the test on PC-3 prostate and in the test on SF-295 CNS was greater than 100 µM each time. The TGI with SF-539 CNS, in the test on SN12C renal and with SNB-19 CNS was greater than 100 µM each time.

As to `COc1ccc(-c2oc3c(OC)c(OC)cc(O)c3c(=O)c2OC)cc1`, the TGI with 786-0 renal, in the test with A498 renal, with BT-549 breast, in the test on CCRF-CEM leukemia, in the test with HL-60(TB) leukemia and in the test with SF-295 CNS was greater than 100 µM in each case. The TGI with SF-539 CNS is 72.5 µM; in the test on SN12C renal, greater than 100 µM; with SNB-19 CNS, greater than 100 µM; in the test with UO-31 renal it was greater than 100 µM.

Regarding `COc1ccccc1C1c2cc3c(cc2OC(N2CCOCC2)C1C)OCO3` (configuration not stated), the TGI was 42.2 µM with 786-0 renal; 34.7 µM in the test with CCRF-CEM leukemia; 71.9 µM in the test on PC-3 prostate; 35.5 µM in the test on SF-295 CNS; 32 µM in the test with SF-539 CNS; 38.1 µM in the test on SN12C renal. Further, the TGI with SNB-19 CNS stood at 37.8 µM; with UO-31 renal it was 42.8 µM.

For the compound `N#CNC(=NCCc1c[nH]c2ccccc12)Oc1ccccc1`, the TGI with 786-0 renal, in the test with CCRF-CEM leukemia, in the test with HL-60(TB) leukemia, in the test on SF-295 CNS, in the test on SF-539 CNS and in the test with SN12C renal was greater than 100 µM throughout. For the same compound, the TGI in the test on SNB-19 CNS and in the test with UO-31 renal was greater than 100 µM each time.

Turning to `NS(=O)(=O)c1ccc(/C=C/c2ccc(O)cc2)cc1`, the TGI in the test with 786-0 renal is 89.6 µM; in the test on A498 renal, greater than 100 µM; in the test on CCRF-CEM leukemia, greater than 100 µM; with HL-60(TB) leukemia, greater than 100 µM; with PC-3 prostate, 97.7 µM; with SF-295 CNS, 65 µM. The TGI with SF-539 CNS is 37.7 µM; in the test on SN12C renal, greater than 100 µM; in the test with SNB-19 CNS, greater than 100 µM; in the test on UO-31 renal, 36.2 µM. Further, the GI50 in the test with CCRF-CEM leukemia was 4.5 µM; with HL-60(TB) leukemia it was 4.35 µM; in the test with SF-539 CNS it was 7.4 µM.

As to `c1ccc(CSC2(SCc3ccccc3)CCCCC2)cc1`, the TGI in the test with 786-0 renal, with A498 renal, with CCRF-CEM leukemia, in the test on HL-60(TB) leukemia, in the test with PC-3 prostate and in the test on SF-295 CNS was greater than 10 µM in each case. Also, the TGI with SF-539 CNS, in the test on SN12C renal, in the test with SNB-19 CNS and in the test with UO-31 renal was greater than 10 µM in each case.

For `ON=C(CC(O)(C(F)(F)Cl)C(F)(F)Cl)CC(O)(C(F)(F)Cl)C(F)(F)Cl`, the TGI in the test with 786-0 renal, in the test on A498 renal, with CCRF-CEM leukemia, with HL-60(TB) leukemia, in the test with PC-3 prostate and with SF-295 CNS was greater than 10 µM each time. For the same compound, the TGI in the test on SF-539 CNS, in the test with SN12C renal, with SNB-19 CNS and in the test on UO-31 renal was greater than 10 µM each time.

`COC(=O)[C@H](Cc1ccc(O)cc1)NC(=O)[C@H](Cc1ccc(O)cc1)NC(=O)OC(C)(C)C` (Boc-Tyr-Tyr-OMe): the TGI in the test with 786-0 renal, in the test on BT-549 breast, with PC-3 prostate, in the test with SF-295 CNS, with SF-539 CNS and in the test on SNB-19 CNS was greater than 100 µM in each case. This compound also had a TGI in the test on UO-31 renal greater than 100 µM.

Consider `NC(=O)NC12CC3CC(CC(F)(C3)C1)C2`, for which the TGI in the test with 786-0 renal, with A498 renal, in the test on CCRF-CEM leukemia, in the test on HL-60(TB) leukemia, with SF-539 CNS and in the test on SNB-19 CNS was greater than 100 µM throughout. In the test with UO-31 renal, this compound came in with a TGI greater than 100 µM.

Regarding `COC(=O)CCC(NC(=O)OC(C)(C)C)C(=O)NC(Cc1ccc(NC(=O)CCCC(C)=O)cc1)C(=O)NC(CCC(=O)OC)C(=O)OC` (configuration not stated), the TGI in the test with 786-0 renal, in the test with A498 renal, in the test with CCRF-CEM leukemia, in the test with PC-3 prostate, in the test with SF-295 CNS and in the test with SF-539 CNS was greater than 100 µM each time. Moreover, the TGI in the test on SN12C renal, with SNB-19 CNS and in the test with UO-31 renal was greater than 100 µM each time.

As to `CC[C@@]1(O)C(=O)OCc2c1cc1n(c2=O)Cc2c-1nc1ccccc1c2/C=N/NC(=O)c1ccc(N)cc1`, the TGI in the test with 786-0 renal is 5.03 µM; with A498 renal it was 6.18 µM; with BT-549 breast it was greater than 100 µM; in the test with PC-3 prostate, greater than 100 µM; with SF-295 CNS, 14.7 µM; in the test with SF-539 CNS it was 0.019 µM. Also, the TGI in the test with SN12C renal is 16.2 µM; in the test on SNB-19 CNS, greater than 100 µM; in the test with UO-31 renal, 25.6 µM.

Turning to `CCOc1cc2c(c(OCC)c1O)CC[C@@H]1[C@@H]2CC[C@]2(C)[C@@H](O)CC[C@@H]12`, the TGI in the test with 786-0 renal was greater than 100 µM; in the test on A498 renal, 41.6 µM; in the test with CCRF-CEM leukemia, greater than 100 µM; in the test with HL-60(TB) leukemia, 1.86 µM; in the test on SF-295 CNS, 13.1 µM; in the test on SF-539 CNS it was 6.71 µM. The values for the TGI in the test on SN12C renal, in the test on SNB-19 CNS and in the test with UO-31 renal were 21.9 µM, greater than 100 µM and 79.3 µM, respectively. In the test with SN12C renal, the GI50 is 4.84 µM.

`CCOC(=O)C(Cl)(NC(=O)OCc1ccccc1)C(F)(F)F` (configuration not stated): the TGI in the test with 786-0 renal, in the test on A498 renal, in the test on CCRF-CEM leukemia, in the test with HL-60(TB) leukemia, with PC-3 prostate and with SF-295 CNS was greater than 100 µM throughout. Also, the TGI with SF-539 CNS, with SN12C renal, in the test on SNB-19 CNS and in the test on UO-31 renal was greater than 100 µM throughout.

Regarding `COc1ccc(NC(=S)c2ccoc2C)cc1CC(=O)OC(C)C`, the TGI was greater than 100 µM in the test on 786-0 renal; greater than 100 µM in the test with CCRF-CEM leukemia; 54.5 µM in the test with HL-60(TB) leukemia; 62.3 µM in the test with PC-3 prostate; greater than 100 µM in the test with SF-295 CNS; greater than 100 µM in the test on SF-539 CNS. The TGI in the test with SN12C renal, in the test with SNB-19 CNS and with UO-31 renal was greater than 100 µM throughout.

Take `C#CC1(O)CCCCCCCCC2(CCCCCCCC1)OCCO2`: the TGI worked out at 31.4 µM with 786-0 renal; 27.8 µM in the test on A498 renal; 40.9 µM in the test on HL-60(TB) leukemia; 25.9 µM in the test with PC-3 prostate; 34.7 µM in the test with SF-295 CNS; 31.8 µM with SF-539 CNS. In addition, the TGI with SN12C renal is 31.5 µM; with SNB-19 CNS, 33 µM.

The values are drawn from PubChem BioAssay (NCI).
